The values that follow come from ChEMBL document CHEMBL1921722, “In vitro and in vivo evaluation of select kahalalide F analogs with antitumor and antifungal activities” (Bioorg Med Chem, 2011).

One experiment deals with U-251. The experiment in a line: Antitumor activity against human U251 cells xenografted in mouse assessed as tumor cell killing at 2.35 mg/kg, ip qd for 4 days by MTT assay. Type of experiment: functional, organism-based. Further details: dose 2.35 mg/kg.
The test system of the next experiment is OVCAR-5. The experiment in a line: Antitumor activity against human OVCAR5 cells xenografted in mouse assessed as tumor cell killing at 3.1 mg/kg, ip qd for 4 days by MTT assay. It counts as functional, organism-based. Also noted: dose 3.1 mg/kg.

The source made the active and inactive calls. The calls are words filed in the database; no cut-off is given here.

`C/C=C1\NC(=O)[C@H](Cc2ccccc2)NC(=O)[C@@H](C(C)C)NC(=O)[C@@H]([C@@H](C)CC)NC(=O)[C@H](NC(=O)[C@H](NC(=O)[C@H](CCCNCc2ccc(N3CCOCC3)cc2)NC(=O)[C@H]2CCCN2C(=O)[C@H](NC(=O)[C@@H](NC(=O)[C@@H](NC(=O)[C@H](NC(=O)CCCC(C)C)C(C)C)[C@@H](C)O)C(C)C)C(C)C)[C@@H](C)CC)[C@@H](C)OC(=O)[C@H](C(C)C)NC1=O`: the outcome in the experiment on U-251 was inactive.

For `C/C=C1\NC(=O)[C@H](Cc2ccccc2)NC(=O)[C@@H](C(C)C)NC(=O)[C@@H]([C@@H](C)CC)NC(=O)[C@H](NC(=O)[C@H](NC(=O)[C@H](CCCNCc2ccc(F)c(C)c2)NC(=O)[C@H]2CCCN2C(=O)[C@H](NC(=O)[C@@H](NC(=O)[C@@H](NC(=O)[C@H](NC(=O)CCCC(C)C)C(C)C)[C@@H](C)O)C(C)C)C(C)C)[C@@H](C)CC)[C@@H](C)OC(=O)[C@H](C(C)C)NC1=O`, in the experiment with OVCAR-5, the result was inactive.
